Source: patent US8569291B2, “Bicyclic dihydroimidazolone CGRP receptor antagonists” (Merck Sharp & Dohme Corp., priority 2008, dated 2013)

Target: recombinant human CL receptor/RAMP1 (Homo sapiens (Human), UniProt O60894+Q16602)
Experiment: recombinant receptor binding assay (125I-hCGRP displacement)
Details: membranes of HEK 293 cells expressing human CL receptor/RAMP1, 10 pM 125I-hCGRP
Protocol: RECOMBINANT RECEPTOR: Human CL receptor (Genbank accession number L76380) was subcloned into the expression vector pIREShyg2 (BD Biosciences Clontech) as a 5′NheI and 3′ PmeI fragment. Human RAMP1 (Genbank accession number AJ001014) was subcloned into the expression vector pIRESpuro2 (BD Biosciences Clontech) as a 5′NheI and 3′NotI fragment. HEK 293 cells (human embryonic kidney cells; ATCC #CRL-1573) were cultured in DMEM with 4.5 g/L glucose, 1 mM sodium pyruvate and 2 mM glutamine supplemented with 10% fetal bovine serum (FBS), 100 units/mL penicillin and 100 μg/mL streptomycin, and maintained at 37° C. and 95% humidity. Cells were subcultured by treatment with 0.25% trypsin with 0.1% EDTA in HBSS. Stable cell line generation was accomplished by co-transfecting 10 μg of DNA with 30 ug Lipofectamine 2000 (Invitrogen) in 75 cm^2 flasks. CL receptor and RAMP1 expression constructs were co-transfected in equal amounts. Twenty-four hours after transfection the cells were diluted and selective medium (growth medium+300 μg/mL hygromycin and 1 μg/mL puromycin) was added the following day. A clonal cell line was generated by single cell deposition utilizing a FACS Vantage SE (Becton Dickinson). Growth medium was adjusted to 150 μg/mL hygromycin and 0.5 μg/mL puromycin for cell propagation.
RECOMBINANT RECEPTOR BINDING ASSAY: Cells expressing recombinant human CL receptor/RAMP1 were washed with PBS and harvested in harvest buffer containing 50 mM HEPES, 1 mM EDTA and Complete protease inhibitors (Roche). The cell suspension was disrupted with a laboratory homogenizer and centrifuged at 48,000 g to isolate membranes. The pellets were resuspended in harvest buffer plus 250 mM sucrose and stored at—70° C. For binding assays, 20 μg of membranes were incubated in 1 ml binding buffer (10 mM HEPES, pH 7.4, 5 mM MgCl2, and 0.2% BSA) for 3 hours at room temperature containing 10 pM ^125I-hCGRP (GE Healthcare) and antagonist. The assay was terminated by filtration through 96-well GFB glass fiber filter plates (PerkinElmer) that had been blocked with 0.05% polyethyleneimine. The filters were washed 3 times with ice-cold assay buffer (10 mM HEPES, pH 7.4 and 5 mM MgCl2). Scintillation fluid was added and the plates were counted on a Topcount (Packard). Non-specific binding was determined and the data analysis was carried out with the apparent dissociation constant (Ki) determined by using a non-linear least squares fitting the bound CPM data to the equation below:
[formula] Where Y is observed CPM bound, Ymax is total bound counts, Ymin is non specific bound counts, (Ymax−Ymin) is specific bound counts, % Imax is the maximum percent inhibition, % I min is the minimum percent inhibition, radiolabel is the probe, and the Kd is the apparent dissociation constant for the radioligand for the receptor as determined by Hot saturation experiments.

Sequence of recombinant human CL receptor/RAMP1 (Q16602 23-461): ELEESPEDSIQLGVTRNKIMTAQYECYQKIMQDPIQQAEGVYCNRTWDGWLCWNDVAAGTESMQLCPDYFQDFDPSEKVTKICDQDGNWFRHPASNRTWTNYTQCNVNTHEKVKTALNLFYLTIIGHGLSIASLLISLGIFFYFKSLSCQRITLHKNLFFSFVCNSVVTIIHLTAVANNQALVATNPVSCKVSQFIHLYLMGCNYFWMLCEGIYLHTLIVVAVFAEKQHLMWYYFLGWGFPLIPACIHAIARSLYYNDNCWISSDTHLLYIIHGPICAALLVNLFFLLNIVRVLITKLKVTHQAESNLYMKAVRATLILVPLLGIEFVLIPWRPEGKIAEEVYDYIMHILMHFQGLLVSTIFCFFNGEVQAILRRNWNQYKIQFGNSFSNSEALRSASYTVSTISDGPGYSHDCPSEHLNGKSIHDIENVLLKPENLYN
Sequence of recombinant human CL receptor/RAMP1 (O60894 27-148): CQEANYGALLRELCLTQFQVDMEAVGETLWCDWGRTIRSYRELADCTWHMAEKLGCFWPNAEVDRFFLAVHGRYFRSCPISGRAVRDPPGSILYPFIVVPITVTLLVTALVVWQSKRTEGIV

| Ki | Compound |
| --- | --- |
| 25 nM | O=C(Cn1c(=O)n(-c2nccs2)c2ccccc21)Nc1ccc2c(c1)CC1(C2)N=C(c2ccccc2)NC1=O (racemic) [Example 1, (±)-N-(5-oxo-2-phenyl-1,1′,3′,5-tetrahydrospiro[imidazole-4,2′-inden]-5′-yl)-2-[2-oxo-3-(1,3-thiazol-2-yl)-2,3-dihydro-1H-benzimidazol-1-yl]acetamide] |
| 570 nM | O=C(Cn1c(=O)n(-c2ccccn2)c2ccccc21)Nc1ccc2c(c1)CC1(C2)N=C(c2ccccn2)NC1=O (racemic) [Example 2, (±)-2-(2-oxo-3-pyridin-2-yl-2,3-dihydro-1H-benzimidazol-1-yl)-N-(5-oxo-2-pyridin-2-yl-1,1′,3′,5-tetrahydrospiro[imidazole-4,2′-inden]-5′-yl)acetamide] |
| 0.21 nM | O=C(CN1C(=O)C2(CCCC2)NC[C@H]1c1cc(F)cc(F)c1)Nc1ccc2c(c1)CC1(C2)N=C(c2ccccc2)NC1=O (single isomer, unassigned) [Example 11] |
| 29 nM | O=C(CN1C(=O)C2(CCCC2)NC[C@H]1c1cc(F)cc(F)c1)Nc1ccc2c(c1)CC1(C2)N=C(c2ccccc2)NC1=O (single isomer, unassigned) [Example 12] |
| 2600 nM | O=C(Cn1c(=O)n(-c2ccccn2)c2ccccc21)Nc1ccc2c(c1)CC1(C2)N=C(C2CC2)NC1=O (centres unmarked) [Example 3] |
| 6400 nM | CCCC1=NC2(Cc3ccc(NC(=O)Cn4c(=O)n(-c5ccccn5)c5ccccc54)cc3C2)C(=O)N1 (centres unmarked) [Example 4] |
| 630 nM | O=C(Cn1c(=O)n(-c2ccccn2)c2ccccc21)Nc1ccc2c(c1)CC1(C2)N=C(c2cnccn2)NC1=O (centres unmarked) [Example 6] |
| 35 nM | O=C(Cn1c(=O)n(-c2ccccn2)c2ccccc21)Nc1ccc2c(c1)CC1(C2)N=C(c2ccccc2)NC1=O (centres unmarked) [Example 7] |
| 130 nM | O=C(Cn1c(=O)n(-c2ccccn2)c2ccccc21)Nc1ccc2c(c1)CC1(C2)N=C(c2cccnc2)NC1=O (centres unmarked) [Example 8] |
| 160 nM | O=C(Cn1c(=O)n(-c2ccccn2)c2ccccc21)Nc1ccc2c(c1)CC1(C2)N=C(c2ccncc2)NC1=O (centres unmarked) [Example 9] |
| 1.6 nM | C[C@@]1(c2cc(F)cc(F)c2)CNC2(CCCC2)C(=O)N1CC(=O)Nc1ccc2c(c1)CC1(C2)N=C(c2ccccc2)NC1=O (some centres unmarked) [Example 13] |
